In series [1] the test system is subjects with pain following bunionectomy. In words: Randomized, double-blind, placebo-controlled study of efficacy in subjects with pain following bunionectomy (Example 3). It counts as in vivo, human. As for the experimental part: A randomized, double-blind, placebo-controlled, 3-arm, parallel-design study to evaluate the effect of Compound 1 on acute surgical pain was conducted. Bunionectomy is a well-established, multi-dose, surgical, acute pain model. A randomized, double-blind study design was selected to avoid observer bias and reduce symptoms or outcomes arising from the subjects' knowledge of treatment. A parallel design was considered most appropriate given the acute nature of bunionectomy surgery.
Male and female patients between the ages of 18 and 65 years (inclusive) with pain that is ≥4 on an 11-point Numeric Pain Rating Scale (NPRS) and is moderate or severe on the Verbal Categorical Rating Scale (VRS) after bunionectomy.
Investigational Drug: Compound 1. The investigational drug was administered orally in 250 mg capsules, prepared as described in Example 2. The investigational drug was administered every 12 hours (q12 h). […]
On the 11-point NPRS, a score of 0 denoted no pain, and a score of 10 denoted the worst pain intensity imaginable. […] Pain intensity also was recorded on the NPRS immediately before each administration of rescue medication. Pain intensity scores that were collected within 4 hours after a dose of rescue medication were taken as missing, and the missing values were imputed as the intensity recorded immediately before the administration of rescue medication. […]

In series [2] the test system is patients with chronic pain caused by small fiber neuropathy. Put plainly: Randomized, double-blind, placebo-controlled 6-week study in patients with chronic pain caused by small fiber neuropathy (Example 5). It is filed as in vivo, human. As for the experimental part:
A randomized, double-blind, placebo-controlled, 6-week study that evaluated treatment with Compound 1 (Treatment Arm) or placebo (Placebo Arm) in patients with chronic pain caused by small fiber neuropathy was conducted.
Males and females between the ages of 18 and 80 years, inclusive, with small fiber neuropathy.
Compound 1 was administered orally in 250 mg capsules, prepared as described in Example 2.
The study included a 7-day run-in period, followed a 6-week treatment period. The subjects were randomized to a Placebo Arm (43 subjects) and a Treatment Arm (46 subjects) between the run-in period and the treatment period.
During the run-in period, subjects reported their average pain and sleep interference to establish a baseline NRS pain score and DSIS score.
During the treatment period, Compound 1 was administered to the subjects in the Treatment Arm every 24 hours (q24 h) in a dose of 1250 mg. Subjects in the Placebo Arm received placebo capsules.
11-point Numeric Rating Scale (NRS). Pain intensity was evaluated using an 11-point NRS. The 11-point scale ranged from 0 (no pain) to 10 (worst imaginable pain). From Day −7 through Week 6, subjects reported their average daily pain during the last 24 hours on the NRS via electronic diary.
Daily Sleep Interference Scale (DSIS). Subjects reported pain interference with sleep using an 11-point scale ranging from 0 (none) to 10 (severe). […]

Series [3] relates to subjects with pain following bunionectomy. Put plainly: Safety and tolerability evaluations in the bunionectomy study (Example 3).
Description: Safety evaluations included adverse events, clinical laboratory assessments, clinical evaluation of vital signs, electrocardiograms, and physical examinations.

SMILES strings stand for the structures.

As for `Cc1cc(F)ccc1Oc1cc(C(F)(F)F)ccc1C(=O)Nc1ccn(COP(=O)(O)O)c(=O)c1` [Compound 1, (4-(2-(4-fluoro-2-methylphenoxy)-4-(trifluoromethyl)benzamido)-2-oxopyridin-1(2H)-yl)methyl dihydrogen phosphate], the “Relief of acute pain compared to placebo (SPID24), in words” value in series [1] (Investigational Arm versus placebo) is “statistically significant relief of acute pain compared to placebo”. Further, in series [1] (number (percentage) of subjects assigned to the arm), the “Subjects who discontinued due to lack of efficacy” value is 6 (7.5%). Besides, the “Subjects with ≥30% reduction in weekly average of daily pain intensity on NRS” value in series [2] (Week 6, total = subjects with data at Week 6) is recorded as 45.0% (18/40). Also, in series [2] (observed as early as Week 1), the “Treatment difference in NRS pain intensity versus placebo at Week 1” value is recorded as “greater than 1 point”. Also, in series [3] (bunionectomy study), the “Tolerability, in words” value is reported as “generally well tolerated”. This compound gave a Gastrointestinal adverse events in series [3] (share of subjects in the arm) of 13%.

(Values after patent publication US11529337B2, “Method of treating pain” (VERTEX PHARMACEUTICALS INCORPORATED, priority 2018, dated 2022).)
